These are literature values, as cited in patent EP1694724B1, “pH SENSITIVE POLYMER AND PROCESS FOR PREPARATION THEREOF” (Council of Scientific and Industrial Research, priority 2003, dated 2005).

The conditions of the data set: humans.

In the case of `CO/N=C(\C(=O)N[C@@H]1C(=O)N2C(C(=O)OC(C)OC(C)=O)=C(COC(N)=O)CS[C@H]12)c1ccco1` (stereo partly shown) [Cefuroxime axetil, cefuroxime axetil], the bioavailability is listed as 32-50%.
